We go through five molecules from patent US4151300A, “Acetohydroxamic acids” (Laboratoire L. Lafon, priority 1976, dated 1979).

For one series, the system named is man. Description: clinical use in man. Type of series: in vivo.
Series [1] relates to rats. Put plainly: interaction with apomorphine (stereotype behaviour in rats). Type of series: in vivo. The conditions noted are these: rats, i.p. The procedure: (§1) The following text summarises a part of the results of the tests which were carried out with the products according to the invention, these products (unless otherwise stated) being administered intraperitoneally, in suspension in a gum solution (gum arabic), in a volume of 20 ml/kg in the case of mice and of 5 ml/kg in the case of rats.
Batches of six rats are each given a subcutaneous injection of apomorphine (0.5 mg/kg) 30 minutes after the administration of CRL 40,373.
Batches of 6 rats are given a subcutaneous injection of 0.5 mg/kg of apomorphine 30 minutes after the administration of CRL 40,385.

Series [2] has as its system rats. Description: interaction with amphetamine (stereotypies in rats). The format is in vivo. Particulars: rats, i.p. The method, then: as §1
30 minutes after the administration of CRL 40,373, amphetamine is injected intraperitoneally at a dose of 2 mg/kg.
Thirty minutes after the administration of CRL 40,385 the rats are given an intraperitoneal injection of 2 mg/kg of amphetamine (6 animals per dose).

Series [3] has as its system mice. Put plainly: traction (motor incoordination). Type of series: in vivo, mice (EVIC CEBA strain).
Series [4] has as its system mice. Put plainly: motility reduced by hypoxia treatment (motor recovery). The format is in vivo. Particulars: mice, i.p.
Series [5] concerns mice. Description: four-plate test. The format is in vivo, mice (EVIC CEBA strain). The method, then: as §1
(§2) The test is carried out on batches of 10 sensitive mice (EVIC CEBA strain), 30 minutes after the administration of CRL 40,373.
(§3) Batches of 10 mice are subjected to the test thirty minutes after having received CRL 40,385.

The subject of another series is central nervous system. Put plainly: psychopharmacological study / behaviour. The format is in vivo, mice.
Series [6] relates to mice. Put plainly: interaction with reserpine (hypothermia, ptosis). The format is in vivo. Particulars: i.p.
Series [7] has as its system mice. Description: toxicity (isolated mice, intraperitoneal). Type of series: in vivo. The conditions noted are these: for mortality: isolated mice. The procedure: as §1
Series [8] has as its system mice. Description: inter-group aggressiveness (number of fights). Type of series: in vivo. The conditions noted are these: mice, i.p.; for aggressiveness: large/high dose. The procedure: as §1
After three weeks' residence in each of the halves of a cage divided by an opaque partition, the mice receive CRL 40,373 thirty minutes before being brought together by withdrawing the partition.
After 18 days' residence on either side of a partition separating their cage in the middle, groups of 3 mice receive CRL 40,385 and are brought together half an hour later by withdrawing the partition, and the number of fights which take place in the course of 15 minutes is noted.

Series [9] has as its system mice. Description: electrical shock (convulsing effects). The format is in vivo, mice (EVIC CEBA strain). Particulars: mice, i.p. The procedure:
as §1, §2, §3

The subject of series [10] is mice. Description: motility reduced by habituation to a cage (residual motility). Type of series: in vivo. The conditions noted are these: i.p. The procedure:
as §1
Mice which have remained for 18 hours in the actimeters are given CRL 40,373. They are immediately replaced in their cages and, after a period of half an hour, their motility is recorded for 30 minutes (6 animals per dose, 12 comparison animals).
After remaining for 18 hours in the actimeters, the mice receive CRL 40,385. Immediately afterwards they are replaced in their cage and half an hour afterwards the recording of the motility starts and is continued for 30 minutes.

Series [11] has as its system mice. Description: spontaneous motility (actimeter). Type of series: in vivo. The conditions noted are these: mice. The procedure: as §1
Thirty minutes after having been given CRL 40,373, the mice (6 per dose, 12 comparison animals) are placed in an actimeter, where their motility is recorded for half an hour.
Thirty minutes after having been given CRL 40,385, the mice are placed in actimeters where their motility is recorded for half an hour.

The subject of series [12] is mice. Description: interaction with oxotremorine (temperature, trembling, peripheral cholinergic symptoms). Type of series: in vivo. Particulars: mice, i.p.

Each structure is given as a SMILES string.

In the case of `CCCCC(CCCC)(CCCC)C(=O)NO` [CRL 40,373, Tributylacetohydroxamic acid], in the series with man (tablet 100 mg, 1 to 3 tablets per day), the clinical result is listed as “used clinically with success as a sedative”. Moreover, the apomorphine-induced stereotypies entry with rats [1] is given as “not influenced”. Besides, the amphetamine-induced stereotypies result in the series on rats [2] is on record as “inhibits the amphetamine-induced stereotypies, this inhibition being proportional to the doses”. Besides, in the series on mice [3] (i.p.), the “motor incoordination / incapacity” value is reported as “does not bring about any major motor incoordination”. Moreover, the “motor recovery after hypoxia/anoxia by pressure reduction” value in the series on mice [4] is “does not produce an improvement in the motor recovery of mice”. In addition, in the series with mice [5] (mice, i.p.), the “number of incorrect moves (four-plate test)” value is “does not cause an increase in the number of incorrect moves”. Also, the “psychopharmacological profile / conclusion” value with central nervous system (mouse, in vivo) is “sedative agent”. In addition, in the series with mice [6], the reserpine-induced hypothermia entry was “not modified” and the reserpine-induced ptosis entry was “not modified”. For the same molecule, the mortality entry with mice [7] (i.p., 64, 128, 256, 512 and 1,024 mg/kg) is recorded as “No mortality whatsoever”. For the same molecule, in the series with mice [8], the aggressiveness result is “reduces the number of fights”. Further, in the series on mice [9], the “convulsing effects of the electric shock” value is “does not modify the convulsing effects of the electric shock”. Moreover, the “motility reduced by habituation to the cage” value (shortened to “motility reduced”) with mice [10] is “does not cause a resumption of the exploring activity of mice accustomed to their environment”. For the same molecule, in the series on mice [11] (i.p., 128 and 512 mg/kg), the spontaneous motility result was “causes a reduction in the (spontaneous) motor activity of the mice”. For the same molecule, the oxotremorine-induced trembling entry in the series on mice [12] is “no significant influence on the trembling caused by oxotremorine”. The “temperature (oxotremorine-induced hypothermia)” value in the series on mice [12] (128 and 512 mg/kg, oxotremorine 0.5 mg/kg i.p.) is “exerts a hypothermia-inducing effect and aggravates the lowering of the temperature produced by oxotremorine”. Further, in the series on mice [12] (high doses (128 and 512 mg/kg)), the “peripheral cholinergic symptoms of oxotremorine” value is “increases the hypersalivation and hyperlacrymation produced by oxotremorine”.

For the molecule `O=C(CC(=O)N1c2ccccc2CCc2ccccc21)NO` [CRL 40,471, 5-(10,11-Dihydro-dibenz[b,f]azepino)-carbonylacetohydroxamic acid], in the series with man (tablet 0.250 mg, 2 tablets per day), the clinical result is “good results clinically as a sedative”. Further, the apomorphine-induced stereotypies entry in the series with rats [1] is “does not alter the stereotypies induced by amphetamine and by apomorphine”. Besides, in the series on rats [2], the amphetamine-induced stereotypies entry was “does not alter the stereotypies induced by amphetamine”. Moreover, the “motor recovery after hypoxia/anoxia by pressure reduction” value in the series with mice [4] is given as “does not improve the motor recovery in mice”. Besides, the “motor recovery after hypoxia/anoxia by pressure reduction” value in the series on mice [4] (512 mg/kg) was “motor recovery comparable to that of the comparison mice”. Further, the “psychopharmacological profile / conclusion” value with central nervous system (mouse, in vivo) was “sedative activity”. In addition, the reserpine-induced hypothermia result in the series with mice [6] is “moderate antagonism against reserpine-induced hypothermia”. The “LD-O (maximum non-lethal dose)” value in the series with mice [7] (mouse, in vivo, ip) was “greater than 1,024 mg/kg”. Besides, in the series with mice [8], the inter-group aggressiveness result is recorded as “an effect of the anti-aggressive type appears to manifest itself in the absence of any hypomotility” and the aggressiveness entry is listed as “reduces the intra-specific aggressiveness in mice”. Also, the “motility reduced” value in the series on mice [10] is listed as “does not cause a resumption of the motor activity in mice habituated to their cage”. Further, in the series on mice [11] (i.p., 512 mg/kg), the spontaneous motility result is on record as “very greatly reduces the spontaneous motility of mice”.

Turning to `O=C(CNC(=O)C(c1ccccc1)c1ccccc1)NO` [CRL 40,400, α-(Benzhydrylcarboxamido)-acetohydroxamic acid], in the series on rats [1], the apomorphine-induced stereotypies entry is “does not modify the stereotypies induced in rats by apomorphine”. Besides, the amphetamine-induced stereotypies entry in the series with rats [2] is “does not modify the stereotypies induced in rats by apomorphine and amphetamine”. Further, in the series with mice [6], the “stereotypies induced by reserpine” value is given as “does not modify the stereotypies”. Further, in the series on mice [7] (i.p., 128, 256, 512 and 1,024 mg/kg), the mortality result is reported as “does not cause any mortality whatsoever”. Further, the motility result in the series with mice [11] is recorded as “acts on the motility of mice”. Besides, the “stereotypies induced by oxotremorine” value with mice [12] is recorded as “does not modify the stereotypies”.

As to `O=C(CCN1c2ccccc2Sc2ccccc21)N[O-].[Na+]`, in the series with mice [3] (mice, i.p., high doses (32 and 128 mg/kg)), the motor incapacity entry is reported as “substantial motor incapacity”. Besides, the “motor recovery after hypoxia/anoxia by pressure reduction” value in the series on mice [4] is reported as “not improved”. Moreover, the “body temperature effect (product alone)” value in the series with central nervous system (mouse, in vivo) is on record as “hypothermia-inducing agent”. In addition, the reserpine-induced ptosis result in the series with mice [6] (128 and 32 mg/kg) is listed as “aggravates the ptosis induced by reserpine”. In addition, the reserpine-induced hypothermia result in the series on mice [6] (high dose) is given as “aggravates the hypothermia induced by reserpine”. Besides, the “LD-O (maximum non-lethal dose)” value with mice [7] (mice, i.p.) is “greater than 256 mg/kg”. The time to death with mice [7] (mice, i.p., 512 mg/kg) was found to be 24 h; in the series on mice [7] (mice, i.p., 1,024 mg/kg), 0.583 h. Besides, in the series on mice [9] (high doses (32 and 128 mg/kg)), the “lethal effects of the electric shock” value is reported as “increase in the lethal effects of the electric shock”. Moreover, the “motility reduced” value in the series on mice [10] was “not improved”. Also, the motor activity entry with mice [11] (i.p., from 8 mg/kg upwards) is reported as “reduction of the motor activity”. Besides, in the series on mice [12], the oxotremorine-induced trembling result is on record as “does not alter the intensity or duration of the trembling movements induced by oxotremorine”. Also, the “temperature (oxotremorine-induced hypothermia)” value in the series with mice [12] was “contributes its effect to the hypothermia-inducing action of oxotremorine”.

Turning to `COc1ccc(C[S+]([O-])CC(=O)NO)cc1` (stereo not drawn) [CRL 40,498, p-Methoxybenzyl-sulphinyl-acetohydroxamic acid], in the series with man (pill 100 mg, 2 pills per day), the clinical result was “good results clinically as an anxiolytic agent”. Also, the motor incapacity result in the series with mice [3] (high dose) is “without motor incapacity”. Besides, the “motor recovery after hypoxia/anoxia by pressure reduction” value in the series with mice [4] is reported as “a discrete stimulant effect on the motility”. The “number of incorrect moves (four-plate test)” value is given as “an increase in the number of incorrect moves” in the series with mice [5] (gastric administration, 512 to 32 mg/kg (and possibly less)) and “an increase in the number of incorrect moves” in the series on mice [5] (i.p., 512 to 2 mg/kg). Further, the “body temperature effect (product alone)” value in the series on central nervous system (high dose) is “hypothermia”. Further, in the series on central nervous system (high dose(s)), the “sedation / sedative effect” value was “sedation”. Also, in the series on central nervous system (mice, high dose), the reactivity entry was “reduction in motility, in aggressiveness and in reactivity”. Also, in the series on mice [6], the reserpine-induced hypothermia entry is listed as “partial antagonism to reserpine-induced hypothermia”. In addition, in the series on mice [6], the reserpine-induced ptosis result was “without alteration of the ptosis”. Further, in the series with mice [7] (mice, i.p.), the “LD-O (maximum non-lethal dose)” value is recorded as “greater than 1,204 mg/kg”. The symptoms / behaviour entry with mice [7] (mouse, in vivo, ip, 256 mg/kg) was “sedation, depressed respiration and reaction to the touch”. Besides, the aggressiveness entry in the series on mice [8] is “reduction in motility, in aggressiveness”. Moreover, the spontaneous motility result with mice [11] (high dose) was “reduction in motility”. For the same molecule, the “temperature (oxotremorine-induced hypothermia)” value in the series with mice [12] was “without alteration of the other hypothermia studied”.
